Assay results published in patent publication US10550120B2, “Indole alkaloid compound having immune checkpoint inhibitory action” (TOHOKU UNIVERSITY, priority 2016, dated 2020).

How the values were obtained:
[1] = tested on: CTLA-4; experiment: Intracellular staining of MT2 cells with fluorescence-labeled anti-CTLA-4 antibody and measurement by flow cytometry; assay type: cell-based, human; conditions: 48±2 hours; for Peak MFI of CTLA-4: isotype IgG2a subtracted, average of n=3
Procedure: (§1) MT2 cells from human adult T-cell leukemia were used. Leukemia cells of human adult T-cell leukemia (ATL) express CD4 and CD25 molecules on the cell surface and are considered to be derived from Treg (Chen S. et al., International Immunology 18:269-277 (2005)). MT2 cells were used in experiments as models of Treg since the cells are CD4 positive, CD25 positive, and FOXP3 positive celles derived from ATL.
(§2) The example compounds (compounds 1-17) of the present invention were dissolved in dimethylsulfoxide (DMSO) to prepare each 50 mmol/L solution, which was preserved at −80° C.
(1) MT2 cells were suspended in RPMI1640 medium (hereinafter referred to as “the medium”) supplemented with 10% fetal calf serum (FCS) and 1° penicillin/streptomycin (P/S) to give 3×10^5 cells/mL suspension and 3 mL of the suspension was added to each well of a 6-well plate. To each well were added 0.6 or 1.2 μL of the test compound solutions (compounds 1, 2, and 4), 0.75 or 1.5 μL of the test compound solution (compound 9), and 1.5 μL of the test compound solutions (compounds 8 and 10-17), and the cell cultures were incubated in a CO2 gas incubator (under 37° C., 5% CO2) and cultured for 48±2 hours. As a control of compound 1, 2 and 4, only 1.2 μL of DMSO was added to the well. In addition, as a control of compound 8-17, only 1.5 μL of DMSO was added to the well.
(2) A piece of the cell culture was sampled to count cells with a cell counter (BIO RAD TC-20). The cell culture was centrifuged at 300×g for 5 min, and the supernatant was removed. The residue was suspended in phosphate buffered saline (supplemented with 1% bovine serum albumin (BSA), without calcium and magnesium) (1% BSA/PBS) to adjust the concentration of cells to 5-10×10^6 cells/mL.
(3) To 5 ml tube, each 50 μL of the cell suspension was added.
(4) Foxp3/Transcription Factor Fix/Perm Concentrate (4×) (Cat. No. TNB-1020-L050) (Solution A) in FOXP3/Transcription Factor Staining kit (TONBO biosciences) was diluted with Foxp3/Transcription Factor Fix/Perm Diluent (1×) (Cat. No. TNB-1022-L160) (for dilution of Solution A) to prepare 1× Solution A.
(5) 1 mL of 1× Solution A was added to each tube and mixed by gentle pipetting. Subsequently, it was left at room temperature for 30 min, centrifuged at 300×g for […], and the supernatant was discarded.
(6) Flow Cytometry Perm Buffer (10×) (Cat. No. TNB-1213-L150) (Solution B) in the kit was diluted 10-fold with water to prepare 1× Solution B.
(7) 2 mL of 1× Solution B was added to the tube and centrifuged at 300×g for 5 min. The supernatant was discarded. 2 μL of 2% normal mouse serum/PBS was added to the tube and the tube was gently pipetted. Subsequently, it was left at room temperature for 15 min.
(8) In the CTLA-4 measurement, 20 μL of anti-CTLA-4 antibody (BECKMAN COULTER, CD152-PE clone BN13I M2282) or mouse IgG2a (BECKMAN COULTER, IgG2a (Mouse)-PE A09142) for the control was added to the tube and the tube was gently stirred. Subsequently, it was left in the dark at room temperature for 30 min, and 2 mL of the 1× Solution B was added thereto, the mixture was centrifuged at 300×g for 5 min, and the supernatant was discarded. 2 mL of the 1× Solution B was added to the tube again, the mixture was centrifuged at 300×g for 5 min, and the supernatant was discarded.
(9) Within 2 hours after the solution in the tube was suspended in 0.5 mL of 1% BSA/PBS, and the fluorescence at 577 nm was measured with 488 nm excitation with a flow cytometer (Sony: Cell Sorter SH800). The results were analyzed with software, FlowJo (Tree Star Inc.). The mean peak fluorescence intensity (MFI) of CTLA-4 and mean peak fluorescence intensity of isotype control IgG2a were calculated from histgrams of the measured fluorescence intensity and number of cells, and mean fluorescence intensity of IgG2a was subtracted from that of CTLA-4. Experiments were conducted in n=3, and the average values were shown.

[2] = tested on: IL-10; experiment: Measurement of human IL-10 amount in culture supernatant of MT2 cells with ELISA kit (Test 1); assay type: cell-based; conditions: 48±2 hours; for activity at 10 µM / activity at 20 µM / activity at 12.5 µM / activity at 25 µM: Homo sapiens, 48 h, DMSO control = 100%, read-out: % against control (IL-10 production)
Procedure: as §1, §2
The amount of IL-10 production in the control and the example compounds was measured to evaluate the inhibitory effect on IL-10 production of the example compounds of the present invention.
(1) MT2 cells are suspended in RPMI1640 medium (hereinafter referred to as “the medium”) supplemented with 10% fetal calf serum (FCS) and 1% penicillin/streptomycin (P/S) to give 3×10^5 cells/mL suspension, and 1 mL of the suspension was added to each well of a 24-well plate. […] The cell cultures were incubated 48±2 hours in a CO2 incubator (under a condition of 37° C., 5 CO2). DMSO was diluted 50-fold with the medium, and 20 μL of the diluent was added to the well to make a control of compounds 1-7. In addition, DMSO was diluted 50-fold with the medium, and 25.0 μL of the diluent was added to the well to make a control of compounds 8-17.
(2) A piece of the cell culture was sampled to count cells with a cell counter (BIO RAD TC-20). The cell culture was centrifuged at 300×g for 5 minutes and the supernatant was collected as a sample for IL-10 measurement. When not measured within a day, it was preserved in a freezer at −80° C.
(3) Human IL-10 ELISA kit II (BD OptEIA) was used on the measurement. The kit contains wells treated with anti-IL-10 antibody (8 wells/strip), Standard/Sample diluent, vials comprising freeze-dried IL-10 Standard (1280 pg/vial), ELISA diluent, 20× Wash Buffer, Detection antibody, Enzyme Concentrate, TMB One Step Substrate Reagent, Stop Solution, and cover sheets.
(4) To a vial containing IL-10 Standard was added […] Standard/Sample diluent, and the vial was stood at room temperature for 15 minutes to be dissolved (Standard sample stock solution 1L-10 concentration: 500 pg/mL).
(5) Standard samples in each concentration for making a standard curve were prepared as follows. Firstly, to 300 μL of the medium was added 300 μL of the standard sample stock solution, and the mixture was mixed with a Voltex mixer (250 pg/mL). Next, 300 μL of the standard sample of 250 pg/mL was added to 300 μL of the medium and the mixture was mixed with a Voltex mixer (125 pg/mL). The same procedures were successively repeated to prepare standard solutions of 62.5, 31.25, 15.625, and 7.8125 pg/mL. As 0 pg/mL standard solution, the medium was used.
(6) A kit containing wells treated with anti-IL-10 antibody (8 wells/strip) was warmed to room temperature and 50 μL of ELISA diluent in the kit was added into each well.
(7) To each well containing ELISA diluent, 100 μL of the standard samples of each concentration and each test sample (diluded 50-100 fold with medium) were added.
(8) After the wells were sealed with a cover sheet and gently tapped, they were left at room temperature for 2 hours.
(9) 20× Wash Buffer was diluted 20-fold with water to prepare 1× Wash Buffer.
(10) After the reaction was done for 2 hours, the solutions in each well were aspirated and washed 5 times with 300 μL of 1× Wash Buffer.
(11) After Enzyme Concentrate (4 μL per 8 wells) was added to Detection antibody (1 ml per 8 wells), the solution was mixed by a Vortex mixer and then a necessary amount of Working Detector was prepared.
(12) 100 μL of Working Detector was added to each well, covered with a cover sheet, and the wells were left at room temperature for an hour.
(13) After the reaction was done for an hour, the solutions in wells were aspirated and washed 7 times with 300 μL of 1× Wash Buffer. […]

[3] = Homo sapiens, 48 h, 25.0 μmol/L, DMSO control = 100%, read-out: % against control (CTLA-4 expression)

COC(=O)C1=CN2CCc3c([nH]c4ccccc34)[C@H]2[C@@H]2C(CO)=CC[C@H]12 [Compound 4]
Peak MFI of CTLA-4 ([1]; 10 μmol/L): 796.0
Peak MFI of CTLA-4 ([1]; 20 μmol/L): 621.0
activity at 10 µM ([1]; Homo sapiens, 48 h, 10 μmol/L, DMSO control = 100%, read-out: % against control (CTLA-4 expression)): 93.4%
activity at 20 µM ([1]; Homo sapiens, 48 h, 20 μmol/L, DMSO control = 100%, read-out: % against control (CTLA-4 expression)): 72.9%
IL-10 (ng/10^6 cells) ± standard deviate (n = 3) ([2]; 10 μmol/L): 8.0 ± 0.2 ng/10^6 cells
IL-10 (ng/10^6 cells) ± standard deviate (n = 3) ([2]; 20 μmol/L): 4.3 ± 0.5 ng/10^6 cells
activity at 10 µM ([2]; 10 μmol/L): 42.9%
activity at 20 µM ([2]; 20 μmol/L): 23%

COC(=O)C1=CN2CCc3c([nH]c4ccc(Cl)cc34)[C@@H]2[C@@H]2[C@@H](C)[C@@H](O)C[C@H]12 [Compound 12]
Peak MFI of CTLA-4 ([1]; 25.0 μmol/L): 485
activity at 25 µM [1, 3]: 57.2%
IL-10 (ng/10^6 cells) ± standard deviate (n = 3) ([2]; 12.5 μmol/L): 7.1 ± 0.2 ng/10^6 cells
IL-10 (ng/10^6 cells) ± standard deviate (n = 3) ([2]; 25.0 μmol/L): 4.8 ± 0.3 ng/10^6 cells
activity at 12.5 µM ([2]; 12.5 μmol/L): 75.7%
activity at 25 µM ([2]; 25.0 μmol/L): 50.9%

COC(=O)C1=CN2CCc3c([nH]c4ccc(OC)cc34)[C@@H]2[C@@H]2[C@@H](C)[C@@H](O)C[C@H]12 [Compound 10]
Peak MFI of CTLA-4 ([1]; 25.0 μmol/L): 570
activity at 25 µM [1, 3]: 56.3%
IL-10 (ng/10^6 cells) ± standard deviate (n = 3) ([2]; 12.5 μmol/L): 8.8 ± 0.4 ng/10^6 cells
IL-10 (ng/10^6 cells) ± standard deviate (n = 3) ([2]; 25.0 μmol/L): 5.6 ± 0.3 ng/10^6 cells
activity at 12.5 µM ([2]; 12.5 μmol/L): 93.5%
activity at 25 µM ([2]; 25.0 μmol/L): 59.6%

COC(=O)C1=CN2CCc3c([nH]c4ccccc34)[C@@H]2[C@@]2(O)C(CO)=CC[C@H]12 [Compound 5]
IL-10 (ng/10^6 cells) ± standard deviate (n = 3) ([2]; 10 μmol/L): 19.7 ± 0.2 ng/10^6 cells
IL-10 (ng/10^6 cells) ± standard deviate (n = 3) ([2]; 20 μmol/L): 14.9 ± 0.4 ng/10^6 cells
activity at 10 µM ([2]; 10 μmol/L): 106%
activity at 20 µM ([2]; 20 μmol/L): 80.5%

COC(=O)C1=CN(CCc2c[nH]c3ccccc23)C=C2[C@@H]1CC(OC)O[C@H]2C (some centres unmarked) [Compound 3]
IL-10 (ng/10^6 cells) ± standard deviate (n = 3) ([2]; 10 μmol/L): 14.8 ± 0.3 ng/10^6 cells
IL-10 (ng/10^6 cells) ± standard deviate (n = 3) ([2]; 20 μmol/L): 11.8 ± 0.3 ng/10^6 cells
activity at 10 µM ([2]; 10 μmol/L): 80%
activity at 20 µM ([2]; 20 μmol/L): 63.7%

CC1C(C=O)=C2CCOC(=O)C2=CN1CCc1c[nH]c2ccccc12 (centres unmarked) [Compound 7]
IL-10 (ng/10^6 cells) ± standard deviate (n = 3) ([2]; 10 μmol/L): 17.9 ± 0.6 ng/10^6 cells
IL-10 (ng/10^6 cells) ± standard deviate (n = 3) ([2]; 20 μmol/L): 15.4 ± 0.4 ng/10^6 cells
activity at 10 µM ([2]; 10 μmol/L): 96.5%
activity at 20 µM ([2]; 20 μmol/L): 83.1%
